# Assay results reported in ChEMBL document CHEMBL3885861, “Open TG-GATES”.
# Species: Rattus norvegicus
# Assay: Open TG-GATES - Regimen: Single
# Format: toxicity, organism-based, Sprague-Dawley
# Design: regimen Single, gender Male, age 6 weeks
# Settings: in vivo, po, 100 mg/kg, route gavage, dose level Low; for APTT / Bas / Eos / Fbg / Hb / Ht / Lym / MCH / MCHC / MCV / Mono / Neu / PT / Plat / RBC / Ret / WBC: tissue Blood; for KIDNEY_L / KIDNEY_R / KIDNEY_TOTAL: tissue Kidney; for LIVER: tissue Liver; for A/G / ALP / ALT / AST / BUN / CRE / Ca / Cl / DBIL / GLC / IP / K / LDH / Na / PL / RALB / TBIL / TC / TG / TP / gamma-GTP: tissue Plasma
structure (smiles),measurement,setting,value
CN(C)[C@@H]1C(O)=C(C(N)=O)C(=O)[C@@]2(O)C(O)=C3C(=O)c4c(O)cccc4[C@@](C)(O)[C@H]3C[C@@H]12 [TETRACYCLINE],TERMINAL_BW,3 h,185.7 g
same,APTT,3 h,16.7 s
same,Bas,3 h,0%
same,Eos,3 h,0.8%
same,Fbg,3 h,197.8 mg/dL
same,Hb,3 h,12.8 g/dL
same,Ht,3 h,38.5%
same,Lym,3 h,84.2%
same,MCH,3 h,21.8 pg
same,MCHC,3 h,33.2%
same,MCV,3 h,65.7 fL
same,Mono,3 h,6.4%
same,Neu,3 h,9.2%
same,PT,3 h,12.1 s
same,Plat,3 h,98.5 x10_4/uL
same,RBC,3 h,586.6 x10_4/ul
same,Ret,3 h,9.8%
same,WBC,3 h,101.6 x10_2/uL
same,KIDNEY_L,3 h,0.9 g
same,KIDNEY_R,3 h,0.9 g
same,KIDNEY_TOTAL,3 h,1.9 g
same,LIVER,3 h,8.9 g
same,A/G,3 h,2.3
same,ALP,3 h,713.6 IU/L
same,ALT,3 h,40 IU/L
same,AST,3 h,69.4 IU/L
same,BUN,3 h,12 mg/dL
same,CRE,3 h,0.5 mg/dL
same,Ca,3 h,11.1 mg/dL
same,Cl,3 h,104 meq/L
same,DBIL,3 h,0.036 mg/dL
same,GLC,3 h,179.8 mg/dL
same,IP,3 h,10.7 mg/dL
same,K,3 h,4.9 meq/L
same,LDH,3 h,84.2 IU/L
same,Na,3 h,137.4 meq/L
same,PL,3 h,127.8 mg/dL
same,RALB,3 h,3.8 g/dL
same,TBIL,3 h,0.4 mg/dL
same,TC,3 h,73.8 mg/dL
same,TG,3 h,38 mg/dL
same,TP,3 h,5.4 g/dL
same,gamma-GTP,3 h,1.2 IU/L
same,TERMINAL_BW,6 h,184.5 g
same,APTT,6 h,16.5 s
same,Bas,6 h,0%
same,Eos,6 h,0.6%
same,Fbg,6 h,199.6 mg/dL
same,Hb,6 h,13.2 g/dL
same,Ht,6 h,39.9%
same,Lym,6 h,80.2%
same,MCH,6 h,21.9 pg
same,MCHC,6 h,33.2%
same,MCV,6 h,66 fL
same,Mono,6 h,5.2%
same,Neu,6 h,14.4%
same,PT,6 h,12.1 s
same,Plat,6 h,107 x10_4/uL
same,RBC,6 h,607.2 x10_4/ul
same,Ret,6 h,10.1%
same,WBC,6 h,95.2 x10_2/uL
same,KIDNEY_L,6 h,0.9 g
same,KIDNEY_R,6 h,0.9 g
same,KIDNEY_TOTAL,6 h,1.7 g
same,LIVER,6 h,8.3 g
same,A/G,6 h,2.2
same,ALP,6 h,880.4 IU/L
same,ALT,6 h,36.2 IU/L
same,AST,6 h,69.6 IU/L
same,BUN,6 h,12.2 mg/dL
same,CRE,6 h,0.4 mg/dL
same,Ca,6 h,10.8 mg/dL
same,Cl,6 h,106 meq/L
same,DBIL,6 h,0.02 mg/dL
same,GLC,6 h,175.6 mg/dL
same,IP,6 h,10.3 mg/dL
same,K,6 h,5.1 meq/L
same,LDH,6 h,85.2 IU/L
same,Na,6 h,137 meq/L
same,PL,6 h,139 mg/dL
same,RALB,6 h,3.6 g/dL
same,TBIL,6 h,0.3 mg/dL
same,TC,6 h,82.2 mg/dL
same,TG,6 h,32.4 mg/dL
same,TP,6 h,5.3 g/dL
same,gamma-GTP,6 h,1.6 IU/L
same,TERMINAL_BW,9 h,181.6 g
same,APTT,9 h,16.5 s
same,Bas,9 h,0%
same,Eos,9 h,0.4%
same,Fbg,9 h,210.6 mg/dL
same,Hb,9 h,12.9 g/dL
same,Ht,9 h,39.4%
same,Lym,9 h,81.8%
same,MCH,9 h,21.8 pg
same,MCHC,9 h,32.8%
same,MCV,9 h,66.4 fL
same,Mono,9 h,5.8%
same,Neu,9 h,11.6%
same,PT,9 h,12.2 s
same,Plat,9 h,102.3 x10_4/uL
same,RBC,9 h,592.8 x10_4/ul
same,Ret,9 h,9.5%
same,WBC,9 h,93.6 x10_2/uL
same,KIDNEY_L,9 h,0.9 g
same,KIDNEY_R,9 h,0.9 g
same,KIDNEY_TOTAL,9 h,1.7 g
same,LIVER,9 h,7.5 g
same,A/G,9 h,2.2
same,ALP,9 h,861 IU/L
same,ALT,9 h,32.8 IU/L
same,AST,9 h,64 IU/L
same,BUN,9 h,13.2 mg/dL
same,CRE,9 h,0.4 mg/dL
same,Ca,9 h,10.5 mg/dL
same,Cl,9 h,105.8 meq/L
same,DBIL,9 h,0.022 mg/dL
same,GLC,9 h,176.8 mg/dL
same,IP,9 h,10.5 mg/dL
same,K,9 h,5.1 meq/L
same,LDH,9 h,93.8 IU/L
same,Na,9 h,138.4 meq/L
same,PL,9 h,126.6 mg/dL
same,RALB,9 h,3.8 g/dL
same,TBIL,9 h,0.3 mg/dL
same,TC,9 h,73.4 mg/dL
same,TG,9 h,26 mg/dL
same,TP,9 h,5.5 g/dL
same,gamma-GTP,9 h,1.8 IU/L
same,TERMINAL_BW,24 h,196.8 g
same,APTT,24 h,16.4 s
same,Bas,24 h,0%
same,Eos,24 h,0.5%
same,Fbg,24 h,218 mg/dL
same,Hb,24 h,13.5 g/dL
same,Ht,24 h,41.6%
same,Lym,24 h,84%
same,MCH,24 h,22 pg
same,MCHC,24 h,32.4%
same,MCV,24 h,67.9 fL
same,Mono,24 h,8.5%
same,Neu,24 h,7.2%
same,PT,24 h,11.9 s
same,Plat,24 h,105.1 x10_4/uL
same,RBC,24 h,614 x10_4/ul
same,Ret,24 h,10.3%
same,WBC,24 h,88.6 x10_2/uL
same,KIDNEY_L,24 h,0.9 g
same,KIDNEY_R,24 h,0.9 g
same,KIDNEY_TOTAL,24 h,1.8 g
same,LIVER,24 h,9.1 g
same,A/G,24 h,2.1
same,ALP,24 h,914 IU/L
same,ALT,24 h,34 IU/L
same,AST,24 h,64.8 IU/L
same,BUN,24 h,17.8 mg/dL
same,CRE,24 h,0.5 mg/dL
same,Ca,24 h,11.4 mg/dL
same,Cl,24 h,104.8 meq/L
same,DBIL,24 h,0 mg/dL
same,GLC,24 h,188.5 mg/dL
same,IP,24 h,10 mg/dL
same,K,24 h,5.2 meq/L
same,LDH,24 h,97.8 IU/L
same,Na,24 h,140.8 meq/L
same,PL,24 h,154.2 mg/dL
same,RALB,24 h,3.9 g/dL
same,TBIL,24 h,0.3 mg/dL
same,TC,24 h,86.5 mg/dL
same,TG,24 h,66.2 mg/dL
same,TP,24 h,5.8 g/dL
same,gamma-GTP,24 h,1 IU/L
